According to patent US7538241B2, “Hsp90 family protein inhibitors” (Kyowa Hakko Kogyo Co., Ltd., priority 2003, dated 2009):

Columns and labels:
[1] = system: human chronic myelocytic leukemia-derived K562 cells; assay: Cell growth inhibition test with K562 cells (WST-1); format: cell-based; conditions: 72 hours, read-out: 50% growth inhibition concentration (GI50)
Procedure, shortened: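 K562 cells at 1500 cells/well in 10% FCS RPMI 1640, pre-incubated 5 h, then exposed to serially diluted compound for 72 h at 37° C, 5% CO2. Viability read by WST-1 after 2 h (absorbance 450/655 nm); GI50 reported.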

[2] = system: human mammary cancer-derived KPL-4 cells; assay: Cell growth inhibition test with KPL-4 cells (WST-1); format: cell-based; conditions: KPL4, 72 hours, read-out: 50% growth inhibition concentration (GI50)
Procedure, shortened: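 KPL-4 cells pre-incubated 24 h in 10% FCS DMEM, then exposed to serially diluted compound for 72 h at 37 °C, 5% CO2. WST-1 added for 1 h; A450 minus A655 read. GI50 relative to untreated cells.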

SMILES	GI50 [1]	GI50 [2]
COCCN(C)C(=O)Cc1c(Br)c(O)cc(O)c1-c1ccccc1 [Compound 37, 2-(2-Bromo-3,5-dihydroxy-6-phenylphenyl)-N-(2-methoxyethyl)-N-methylacetamide]	≤ 50 µM	≤ 50 µM
COC(=O)Cc1c(C(C)=O)c(O)cc(O)c1-c1ccccc1 [Compound 69, Methyl 2-acetyl-3,5-dihydroxy-6-phenylphenylacetate]	≤ 50 µM	≤ 50 µM
CCc1c(O)cc(O)c(-c2ccccc2)c1CCOC [Compound 83, 6-Ethyl-5-(2-methoxyethyl)-4-phenylbenzene-1,3-diol]	≤ 50 µM	≤ 50 µM
OCCCc1c(Br)c(O)cc(O)c1-c1ccccc1 [Compound 104, 6-Bromo-5-(3-hydroxypropyl)-4-phenylbenzene-1,3-diol]	≤ 50 µM	≤ 50 µM
CCc1c(O)cc(O)c(-c2ccccc2)c1CCCO [Compound 123, 6-Ethyl-5-(3-hydroxypropyl)-4-phenylbenzene-1,3-diol]	≤ 50 µM	≤ 50 µM
CCc1c(O)cc(O)c(-c2cccc(C)c2)c1CCOC [Compound 130, 6-Ethyl-5-(2-methoxyethyl)-4-(3-methylphenyl)benzene-1,3-diol]	≤ 50 µM	≤ 50 µM
COCCOCCc1c(C(C)=O)c(O)cc(O)c1-c1ccccc1 [Compound 136, 1-[2,4-Dihydroxy-6-[2-(2-methoxyethoxy)ethyl]-5-phenylphenyl)ethanone]	≤ 50 µM	≤ 50 µM
COCCOCCc1c(C(C)=O)c(O)cc(O)c1-c1cccc(OC)c1 [Compound 137, 1-{2,4-dihydroxy-6-[2-(2-methoxyethoxy)ethyl]-5-(3-methoxyphenyl)phenyl}ethanone]	≤ 50 µM	≤ 50 µM
CCc1c(O)cc(O)c(-c2cccc(OC)c2)c1CCO [Compound 143, 6-Ethyl-5-(2-hydroxyethyl)-4-(3-methoxyphenyl)benzene-1,3-diol]	≤ 50 µM	≤ 50 µM
C=CCOCCCc1c(CC)c(O)cc(O)c1-c1ccccc1 [Compound 145, 5-(3-Allyloxypropyl)-6-ethyl-4-phenylbenzene-1,3-diol]	≤ 50 µM	≤ 50 µM
CCc1c(O)cc(O)c(-c2ccccc2)c1CCCOCCOC [Compound 146, 6-Ethyl-5-[3-(2-methoxyethoxy)propyl]-4-phenylbenzene-1,3-diol]	≤ 50 µM	≤ 50 µM
CCc1c(O)cc(O)c(-c2ccccc2)c1CCCOCC(O)CO (stereo not shown) [Compound 148, 5-[3-(2,3-Dihydroxypropoxy)propyl]-6-ethyl-4-phenylbenzene-1,3-diol]	≤ 50 µM	≤ 50 µM
CCc1c(O)cc(O)c(-c2cccc(C)c2)c1CCOCCOC [Compound 149, 6-Ethyl-5-[2-(2-methoxyethoxy)ethyl]-4-(3-methylphenyl)benzene-1,3-diol]	≤ 50 µM	≤ 50 µM
CCc1c(O)cc(O)c(-c2ccccc2)c1CCOCC(=O)NC [Compound 156, 2-[2-(2-Ethyl-3,5-dihydroxy-6-phenylphenyl)ethoxy]-N-methylacetamide]	≤ 50 µM	≤ 50 µM
CCc1c(O)cc(O)c(-c2ccccc2)c1CCOCCO [Compound 161, 6-Ethyl-5-[2-(2-hydroxyethoxy)ethyl]-4-phenylbenzene-1,3-diol]	≤ 50 µM	≤ 50 µM
CCc1c(O)cc(O)c(-c2ccccc2)c1CCCOCCO [Compound 162, 6-Ethyl-5-[3-(2-hydroxyethoxy)propyl]-4-phenylbenzene-1,3-diol]	≤ 50 µM	≤ 50 µM
CCc1c(O)cc(O)c(-c2ccccc2)c1CCCOC(CO)CO [Compound 163, 5-{3-[Bis(hydroxymethyl)methoxy]propyl}-6-ethyl-4-phenylbenzene-1,3-diol]	≤ 50 µM	≤ 50 µM
COCCOCCc1c(C(C)=O)c(O)cc(O)c1-c1cccc(O)c1 [Compound 165, 1-{2,4-Dihydroxy-5-(3-hydroxyphenyl)-6-[2-(2-methoxyethoxy)ethyl]phenyl}ethanone]	≤ 50 µM	≤ 50 µM
CCc1c(O)cc(O)c(-c2ccccc2)c1CCCOCC(=O)NCCO [Compound 167, 2-[3-(2-Ethyl-3,5-dihydroxy-6-phenylphenyl)propoxy]-N-(2-hydroxyethyl)acetamide]	≤ 50 µM	≤ 50 µM
CCc1c(O)cc(O)c(-c2cccc(O)c2)c1CCOC [Compound 171, 6-Ethyl-4-(3-hydroxyphenyl)-5-(2-methoxyethyl)benzene-1,3-diol]	≤ 50 µM	≤ 50 µM
CCc1c(O)cc(O)c(-c2cccc(O)c2)c1CCO [Compound 172, 6-Ethyl-5-(2-hydroxyethyl)-4-(3-hydroxyphenyl)benzene-1,3-diol]	≤ 50 µM	≤ 50 µM
CCc1c(O)cc(O)c(-c2cccc(O)c2)c1CCOCC(O)CO (stereo not shown) [Compound 173, 5-[2-(2,3-dihydroxypropoxy)ethyl]-6-ethyl-4-(3-hydroxyphenyl)benzene-1,3-diol]	≤ 50 µM	≤ 50 µM
CCc1c(O)cc(O)c(-c2ccccc2)c1CCOCCCO [Compound 175, 6-Ethyl-5-[2-(3-hydroxypropoxy)ethyl]-4-phenylbenzene-1,3-diol]	≤ 50 µM	≤ 50 µM
CCc1c(O)cc(O)c(-c2cccc(OC)c2)c1CCOCC(O)CO (stereo not shown) [Compound 189, 5-[2-(2,3-Dihydroxypropoxy)ethyl]-6-ethyl-4-(3-methoxyphenyl)benzene-1,3-diol]	≤ 50 µM	≤ 50 µM
COC(=O)Cc1cc(O)cc(O)c1-c1ccc2ccccc2c1 [Compound 270, Methyl-3,5-dihydroxy-2-(2-naphthyl)phenylacetate]	≤ 50 µM	≤ 50 µM
CCc1c(O)cc(O)c(-c2cccc(O)c2)c1Cc1nn(CCOC)c(=O)o1 [Compound 324, 5-{[2-Ethyl-3,5-dihydroxy-6-(3-hydroxyphenyl)phenyl]methyl}-3-(2-methoxyethyl)-3H-1,3,4-oxadiazol-2-one]	≤ 50 µM	–
CCOC(=O)Oc1cc(OC(=O)OCC)c(-c2ccccc2)c(CCOCCOC)c1CC [Compound 325, 1,5-Bis(ethoxycarbonyloxy)-4-ethyl-3-[2-(2-methoxyethoxy)ethyl]-2-phenylbenzene]	≤ 50 µM	–
CCc1c(OC(=O)N(C)C)cc(OC(=O)N(C)C)c(-c2ccccc2)c1CCOCCOC [Compound 326, 1,5-Bis(dimethylcarbamoyloxy)-4-ethyl-3-[2-(2-methoxyethoxy)ethyl]-2-phenylbenzene]	≤ 50 µM	–
CCc1c(OC(=O)N2CCN(C)CC2)cc(O)c(-c2ccccc2)c1CCOCCOC [Compound 327, 4-Ethyl-3-[2-(2-methoxyethoxy)ethyl]-5-(4-methylpiperazin-1-ylcarbonyloxy)-2-phenylbenzen-1-ol]	≤ 50 µM	–
CCc1c(OC(C)=O)cc(OC(C)=O)c(-c2ccccc2)c1CCOCCOC [Compound 328, 1,5-Bis(acetyloxy)-4-ethyl-3-[2-(2-methoxyethoxy)ethyl]-2-phenylbenzene]	≤ 50 µM	–
